“Also recorded” adds a separate entry of the source.
Columns and labels:
[1] = Randomized double-blind, placebo-controlled trial in subjects with medium to moderate Alzheimer's disease; type: in vivo, human; conditions: 50, 100, 150 mg homotaurine in combination with 500, 750 and 1000 mg sodium citicoline
Method: Studies to evaluate the pharmacokinetic-pharmacodynamic effect of compositions for use of the invention have provided positive indications about the activity. In particular, in a randomized double-blind, placebo-controlled trial in which 58 subjects with from medium to moderate Alzheimer's disease were administered 50, 100, 150 mg of homotaurine in combination with 500, 750 and 1000 mg of sodium citicoline.

[2] = tested on: retinal cells; conditions: for cytotoxicity (cell death) on the cell cultures: 1, 10, 100 µM for 24 h; for toxicity to retinal cells (MTT): 1, 10 or 100 µM
Method: (§1) The MTT assay was used to measure the viability of both neuronal and retina cells. The cells were prepared in a 96-well plate in DMEM-F12 with 7% FBS. After cultured in DMEM-F12 without serum for 12 h, Ab25-35 ([…]) or glucose oxidase (GOX) alone or in combination with homotaurine (Hom), citicoline (CITC) or Hom + CITC were added to the medium. Twenty-four hours later, the cells were incubated with […] MTT (Roche, 0.5 mg/ml) at 37 °C for 4 hours, then the crystals were dissolved in […] DMSO. Absorbance at 570 nm was measured with a spectrophotometer (TECAN Infinite M200, Switzerland).

[3] = Bioavailability of [methyl-14C]-labelled citicoline by oral and venous route, radioactivity in plasma; type: in vivo, experimental animal models
Excerpt: In experimental animal models, the applicant compared the bioavailability by oral and venous route of citicoline, labeling it with a radioactive label -[methyl-14C].

[4] = Water solubility; type: physicochemical
[5] = tested on: human retina pigment epithelium (ARPE-19); assay: MTT assay, cell viability of retina cells against cytotoxicity induced by glucose oxidase (GOX); type: cell-based; conditions: cytotoxicity induced by GOX 50 mU/ml; 1 µM; n = 5
Method: as §1

[6] = 50 mg per day, individuals with an average decline of cognitive functions; cited from earlier work
[7] = target: Aβ40 (Homo sapiens, UniProt P05067); conditions: 8-week treatment, 30 or 100 mg/kg/day; cited from earlier work
[8] = target: Aβ42 (Homo sapiens, UniProt P05067); conditions: 8-week treatment, 30 or 100 mg/kg/day; cited from earlier work
Sequence of Aβ42 (P05067 672-713 limits assumed, species assumed): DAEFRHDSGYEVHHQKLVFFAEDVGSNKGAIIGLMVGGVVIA

Sequence of Aβ40 (P05067 672-711 limits assumed, species assumed): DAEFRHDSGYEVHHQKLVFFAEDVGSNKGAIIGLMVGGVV

C[N+](C)(C)CCOP(=O)([O-])OP(=O)([O-])OC[C@H]1O[C@@H](n2ccc(N)nc2=O)[C@H](O)[C@@H]1O.[Na+] [sodium citicoline]
crossing of the blood-brain barrier [1]: crossed the blood-brain barrier

C[N+](C)(C)CCOP(=O)(O)OP(=O)([O-])OC[C@H]1O[C@@H](n2ccc(N)nc2=O)[C@H](O)[C@@H]1O [citicoline, 2-[{[5-(4-amino-2-oxopyrimidin-1-yl)-3,4-dihydroxyoxolan-2-yl]methoxy-hydroxyphosphoryl}oxy-hydroxyphosphoryl]oxyethyl-thrimethylazanium]
cytotoxicity (cell death) on the cell cultures [2]: None of the concentrations induced cell death; also recorded: substantial absence of cytotoxicity | toxicity to retinal cells (MTT) [2]: no evidence of selective toxicity | bioavailability ([3]; oral administration): greater than 90% | equivalence of the two alternative administration routes (percentage of radioactivity in plasma over time) ([3]; oral vs venous route, [methyl-14C] label): about 90% | water solubility [4]: high

NCCCS(=O)(=O)O [homotaurine, 3-amino-1-propanesulfonic acid]
cell viability (MTT) [5]: able to improve the cell viability | cytotoxicity (cell death) on the cell cultures [2]: None of the concentrations induced cell death; also recorded: substantial absence of cytotoxicity | toxicity to retinal cells (MTT) [2]: no evidence of selective toxicity | crossing of the blood-brain barrier [1]: crossed the blood-brain barrier | effect on atrophy of the hippocampus [6]: positive effect | effect on episodic memory loss [6]: positive effect | plasma level of Aβ40 [7]: able to reduce | plasma level of Aβ42 [8]: able to reduce
